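Cultured in 96-well plates, cells were exposed to test compound for 48 hours across five concentrations. At the GI50, growth is halved.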 Calls of active or inactive are those of the source. Rule as the data show it: active = GI50 up to about 1.1 µM and inactive = higher.
Assays:
Assay in all cases: NCI-60 cell line screen, 48 h
DMS-273 = system: DMS-273
K562 = system: K562
SR = system: SR
KM12 = system: KM12
ACHN = system: ACHN
HT-29 = system: HT-29
HCT-116 = system: HCT-116
U-251 = system: U-251
NCI-H460 = system: NCI-H460
Malme-3M = system: Malme-3M
XF498 = system: XF498
SK-MEL-5 = system: SK-MEL-5
SK-MEL-28 = system: SK-MEL-28
OVCAR-4 = system: OVCAR-4
RPMI-8226 = system: RPMI-8226
UO-31 = system: UO-31
CAKI-1 = system: CAKI-1
A498 = system: A498

SMILES | GI50 (DMS-273) | GI50 (K562) | GI50 (SR) | GI50 (KM12) | GI50 (ACHN) | GI50 (HT-29) | GI50 (HCT-116) | GI50 (U-251) | GI50 (NCI-H460) | GI50 (Malme-3M) | GI50 (XF498) | GI50 (SK-MEL-5) | GI50 (SK-MEL-28) | GI50 (OVCAR-4) | GI50 (RPMI-8226) | GI50 (UO-31) | GI50 (CAKI-1) | GI50 (A498)
CCN(CC)C(=O)CCn1cc(F)c(=O)[nH]c1=O | > 100 µM (inactive) | > 100 µM (inactive) | > 100 µM (inactive) | > 100 µM (inactive) | > 100 µM (inactive) | > 100 µM (inactive) | > 100 µM (inactive) | > 100 µM (inactive) | > 100 µM (inactive) | > 100 µM (inactive) | > 100 µM (inactive) | > 100 µM (inactive) | > 100 µM (inactive) | > 100 µM (inactive) | > 100 µM (inactive) | > 100 µM (inactive) | – | –
Cc1cccc(C2=NC(C)(C)C(C)(C)N=C2c2cccc(C)n2)n1 | > 100 µM (inactive) | 41.8 µM (inactive) | – | > 100 µM (inactive) | > 100 µM (inactive) | 26.1 µM (inactive) | 35.4 µM (inactive) | > 100 µM (inactive) | > 100 µM (inactive) | > 100 µM (inactive) | > 100 µM (inactive) | > 100 µM (inactive) | > 100 µM (inactive) | > 100 µM (inactive) | 34.6 µM (inactive) | > 100 µM (inactive) | > 100 µM (inactive) | > 100 µM (inactive)
O=C(CCc1cc(-c2ccc(F)cc2)n[nH]1)N(Cc1ccccc1)Cc1ccccc1 | > 100 µM (inactive) | > 100 µM (inactive) | 13.8 µM (inactive) | > 100 µM (inactive) | > 100 µM (inactive) | > 100 µM (inactive) | > 100 µM (inactive) | > 100 µM (inactive) | > 100 µM (inactive) | > 100 µM (inactive) | > 100 µM (inactive) | > 100 µM (inactive) | > 100 µM (inactive) | – | > 100 µM (inactive) | > 100 µM (inactive) | > 100 µM (inactive) | > 100 µM (inactive)
COC(=O)C(=O)C(C(=O)C(=O)Nc1cc(Cl)c(Cl)cc1Cl)c1nc2ccc([N+](=O)[O-])cc2nc1O (configuration not stated) | > 100 µM (inactive) | > 100 µM (inactive) | > 100 µM (inactive) | > 100 µM (inactive) | > 100 µM (inactive) | – | > 100 µM (inactive) | > 100 µM (inactive) | – | > 100 µM (inactive) | 7.1 µM (inactive) | > 100 µM (inactive) | > 100 µM (inactive) | > 100 µM (inactive) | > 100 µM (inactive) | 51.4 µM (inactive) | 60.8 µM (inactive) | –
COC1=C(C(=O)OC(C)(C)C)C23CCCCC2(C(C(=O)OC(C)(C)C)=C(OC)C3C(=O)OC(C)(C)C)C1C(=O)OC(C)(C)C (configuration not stated) | 10.1 µM (inactive) | 9.64 µM (inactive) | 19.6 µM (inactive) | 34 µM (inactive) | 20.1 µM (inactive) | 18.5 µM (inactive) | 14.2 µM (inactive) | 49.9 µM (inactive) | 11.5 µM (inactive) | 55.8 µM (inactive) | 38.1 µM (inactive) | 12.4 µM (inactive) | – | 9.12 µM (inactive) | 8.47 µM (inactive) | 9.35 µM (inactive) | > 100 µM (inactive) | > 100 µM (inactive)
CCOC(=O)C1N(S(=O)(=O)c2ccc(C)cc2)CCC12C(c1ccc(OC)c(OC)c1)=Nc1ccccc12 (configuration not stated) | > 100 µM (inactive) | > 100 µM (inactive) | – | > 100 µM (inactive) | > 100 µM (inactive) | > 100 µM (inactive) | > 100 µM (inactive) | > 100 µM (inactive) | > 100 µM (inactive) | > 100 µM (inactive) | 30.1 µM (inactive) | > 100 µM (inactive) | > 100 µM (inactive) | > 100 µM (inactive) | > 100 µM (inactive) | > 100 µM (inactive) | > 100 µM (inactive) | > 100 µM (inactive)
CNC(=S)NC(=S)N(C)C | 0.869 µM (active) | 1.75 µM (inactive) | 3.44 µM (inactive) | – | > 100 µM (inactive) | – | 4.71 µM (inactive) | > 100 µM (inactive) | 2.71 µM (inactive) | – | > 100 µM (inactive) | – | 6.32 µM (inactive) | > 100 µM (inactive) | 1.67 µM (inactive) | > 100 µM (inactive) | > 100 µM (inactive) | > 100 µM (inactive)
CCN(CC)CCN(C)CC(C)(C)C(=O)/C=C/c1ccccc1 | 13 µM (inactive) | 0.0693 µM (active) | 10.5 µM (inactive) | 12.1 µM (inactive) | 12.6 µM (inactive) | 11.2 µM (inactive) | – | 10.4 µM (inactive) | 5.68 µM (inactive) | 13.4 µM (inactive) | 12.4 µM (inactive) | 14.2 µM (inactive) | 16 µM (inactive) | 11.4 µM (inactive) | 4.15 µM (inactive) | 13.4 µM (inactive) | 11.8 µM (inactive) | 4.11 µM (inactive)
COc1ccc(C(=O)O)c(Cc2ccc3ccccc3c2)c1 | > 100 µM (inactive) | > 100 µM (inactive) | > 100 µM (inactive) | > 100 µM (inactive) | > 100 µM (inactive) | > 100 µM (inactive) | > 100 µM (inactive) | > 100 µM (inactive) | > 100 µM (inactive) | > 100 µM (inactive) | > 100 µM (inactive) | > 100 µM (inactive) | > 100 µM (inactive) | > 100 µM (inactive) | > 100 µM (inactive) | > 100 µM (inactive) | > 100 µM (inactive) | > 100 µM (inactive)
N#CCCN(CCC#N)c1ccc(C(Sc2ccccc2)C(NC(=O)c2cc([N+](=O)[O-])ccc2Cl)C(=O)Sc2ccccc2)cc1 (configuration not stated) | 1.56 µM (inactive) | 2.39 µM (inactive) | 1.51 µM (inactive) | 3.53 µM (inactive) | 3.71 µM (inactive) | 4.1 µM (inactive) | 2.17 µM (inactive) | 1.23 µM (inactive) | 4.41 µM (inactive) | 7.33 µM (inactive) | 8.67 µM (inactive) | 3.27 µM (inactive) | 1.96 µM (inactive) | 6.15 µM (inactive) | 1.77 µM (inactive) | 2.2 µM (inactive) | 1.45 µM (inactive) | 2.15 µM (inactive)
COc1ccc(C(C)Nc2cc(OC)c(OC)c(OC)c2)cc1 (configuration not stated) | 1.82 µM (inactive) | 2.19 µM (inactive) | 3.1 µM (inactive) | 2.63 µM (inactive) | 8.87 µM (inactive) | 3.57 µM (inactive) | 3.58 µM (inactive) | 2.75 µM (inactive) | 3.03 µM (inactive) | 3.68 µM (inactive) | 6.89 µM (inactive) | 2.54 µM (inactive) | 3.24 µM (inactive) | 6.43 µM (inactive) | 3.86 µM (inactive) | 10.5 µM (inactive) | 4.23 µM (inactive) | 4.45 µM (inactive)
COc1c(C)c2c(c3c1c(=O)c1ccccc1n3C)C=CC(C)(C)O2 | 14.8 µM (inactive) | 13.4 µM (inactive) | 12.5 µM (inactive) | 17.9 µM (inactive) | 20.6 µM (inactive) | 14 µM (inactive) | 18.5 µM (inactive) | 21.8 µM (inactive) | 18.7 µM (inactive) | 25.8 µM (inactive) | 24.9 µM (inactive) | 15.3 µM (inactive) | 22 µM (inactive) | – | 9.02 µM (inactive) | 26.5 µM (inactive) | 26.2 µM (inactive) | 32.7 µM (inactive)
O=C(O)CCC(=O)OCN1C(=O)C2C3C=CC(C2C1=O)C1C2C(=O)N(COC(=O)CCC(=O)O)C(=O)C2C31 (configuration not stated) | > 43.2 µM (inactive) | > 100 µM (inactive) | 30.8 µM (inactive) | 97.5 µM (inactive) | > 67 µM (inactive) | > 100 µM (inactive) | > 37.8 µM (inactive) | > 65.8 µM (inactive) | 32.5 µM (inactive) | > 100 µM (inactive) | > 100 µM (inactive) | > 100 µM (inactive) | > 100 µM (inactive) | > 100 µM (inactive) | 21.4 µM (inactive) | 98.6 µM (inactive) | > 100 µM (inactive) | > 100 µM (inactive)
COc1ccc(Nc2nc3c(N)cc(C(F)(F)F)cc3nc2-c2ccccc2)cc1OC | 33.5 µM (inactive) | 63 µM (inactive) | 92.7 µM (inactive) | 29.3 µM (inactive) | 12.8 µM (inactive) | – | 25.6 µM (inactive) | 11.3 µM (inactive) | 27.3 µM (inactive) | 16.4 µM (inactive) | 14.8 µM (inactive) | 20.4 µM (inactive) | 26.2 µM (inactive) | 11.9 µM (inactive) | – | 30.3 µM (inactive) | 22.6 µM (inactive) | 31.8 µM (inactive)
COc1cccc(N2C(=O)c3c(c4[nH]c5ccccc5c4c4ccc(C(C)(C)C)cc34)C2=O)c1 | > 100 µM (inactive) | > 100 µM (inactive) | > 100 µM (inactive) | > 100 µM (inactive) | > 100 µM (inactive) | – | > 100 µM (inactive) | > 100 µM (inactive) | > 100 µM (inactive) | > 100 µM (inactive) | > 100 µM (inactive) | > 100 µM (inactive) | > 100 µM (inactive) | > 100 µM (inactive) | – | > 100 µM (inactive) | > 100 µM (inactive) | > 100 µM (inactive)
CCOC(=O)c1cc(=O)n(C)c(=O)n1C | > 100 µM (inactive) | > 100 µM (inactive) | – | > 100 µM (inactive) | > 100 µM (inactive) | > 100 µM (inactive) | > 100 µM (inactive) | > 100 µM (inactive) | > 100 µM (inactive) | > 100 µM (inactive) | > 100 µM (inactive) | > 100 µM (inactive) | > 100 µM (inactive) | > 100 µM (inactive) | – | > 100 µM (inactive) | > 100 µM (inactive) | > 100 µM (inactive)
